Data published in patent US8124744B2, “Macrolide derivatives” (Taisho Pharmaceutical Co., Ltd., priority 2006, dated 2012).
Converted amounts (≈) assume the structure as drawn.

Key:
pro MMP-9 protein = test: Inhibitory activity against proMMP-9 protein production (TNF α-stimulated mouse peritoneal exudate cells, ELISA); format: cell-based, C57BL/6J mice; conditions: relative activity when the value of Comparative Agent 1 (IC50 = 10.04 ± 4.11 μM) is 10, on the increase of pro MMP-9 by TNF α 25 ng/ml, 24 hours, read-out: IC50 (μM)*
In short: (§1)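 Peritoneal exudate cells came from male C57BL/6J mice 3 days after i.p. zymosan A; cultured cells got compound (0.02–20 μM final) 1 h before TNFα (25 ng/ml) and supernatant pro MMP-9 was measured by ELISA after 24 h for IC50 against the TNFα-induced increase. MIC was measured against S. aureus ATCC29213.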

[1] = test system: Staphylococcus aureus ATCC29213; test: Minimal inhibitory concentration (MIC); format: cell-based
In short: as §1

MMP-9 production = conditions: background art, Non-Patent Document 3; read-out: 50% inhibitory concentration (IC50) value, MMP-9 production; cited from earlier work

## CC[C@H]1OC(=O)[C@H](C)[C@@H](O[C@H]2C[C@@](C)(OC)[C@@H](OC(C)=O)[C@H](C)O2)[C@H](C)[C@@H](O[C@@H]2O[C@H](C)C[C@@H](N3CCOCC3)[C@@H]2N(C)C)[C@@](C)(OC)C[C@@H](C)C(=O)[C@H](C)[C@@H](O)[C@H]1C [Example 209, 4″-O-acetyl-3′-dedimethylamino-2′-deoxy-2′-dimethylamino-3′-(4-morpholino)-6-O-methylerythromycin B]
Pro MMP-9 protein
  IC50: 3.47 µM
[1]
  MIC: > 128 µg/mL

## CC[C@H]1OC(=O)[C@H](C)[C@@H](O[C@H]2C[C@@](C)(OC)[C@@H](O)[C@H](C)O2)[C@H](C)[C@@H](O[C@@H]2O[C@H](C)C[C@H](N(C)C)[C@H]2O)[C@](C)(O)C[C@@H](C)/C(=N\OCOCCOC)[C@H](C)[C@@H](O)[C@]1(C)O [roxithromycin]
MMP-9 production
  IC50: ≥ 10 µM

## CC[C@H]1OC(=O)[C@H](C)C(=O)[C@H](C)[C@@H](O[C@@H]2O[C@H](C)C[C@H](N(C)C)[C@H]2OC)[C@@](C)(OC)C[C@@H](C)C(=O)[C@H](C)[C@@H](O)[C@]1(C)O [Example 155, 3-deoxy-3-oxo-5-O-(2′-O-methyldesosaminyl)-6-O-methylerythronolide A]
Pro MMP-9 protein
  IC50: 9.7 µM
[1]
  MIC: > 128 µg/mL

## CC[C@H]1OC(=O)[C@H](C)[C@@H](O[C@H]2C[C@@](C)(OC)[C@@H](O)[C@H](C)O2)[C@H](C)[C@@H](O[C@@H]2O[C@H](C)C[C@H](N(C)C)[C@H]2OCCCc2ccccc2)[C@@](C)(OC)C[C@@H](C)C(=O)[C@H](C)[C@@H](O)[C@]1(C)O [Example 24, 2′-O-(3-phenylpropyl)-6-O-methylerythromycin A]
Pro MMP-9 protein
  IC50: 0.38 µM
[1]
  MIC: > 64 µg/mL

## CC[C@H]1OC(=O)[C@H](C)[C@@H](O[C@H]2C[C@@](C)(OC)[C@@H](OC(C)=O)[C@H](C)O2)[C@H](C)[C@@H](O[C@@H]2O[C@H](C)C[C@@H](N(C)Cc3ccncc3)[C@@H]2N(C)C)[C@@](C)(OC)C[C@@H](C)C(=O)[C@H](C)[C@@H](O)[C@]1(C)O [Example 187, 4″-O-acetyl-3′-N-demethyl-2′-deoxy-2′-dimethylamino-3′-N-(4-pyridylmethylamino)-6-O-methylerythromycin A]
Pro MMP-9 protein
  IC50: 1.37 µM
[1]
  MIC: > 128 µg/mL

## CC[C@H]1OC(=O)[C@H](C)[C@@H](O[C@H]2C[C@@](C)(OC)[C@@H](OC(C)=O)[C@H](C)O2)[C@H](C)[C@@H](O[C@@H]2O[C@H](C)C[C@@H](N(C)CCCc3ccncc3)[C@@H]2N(C)C)[C@@](C)(OC)C[C@@H](C)C(=O)[C@H](C)[C@@H](O)[C@]1(C)O [Example 162, 4″-O-acetyl-3′-N-demethyl-2′-deoxy-2′-dimethylamino-3′-N-(3-(4-pyridyl)propyl)-6-O-methylerythromycin A]
Pro MMP-9 protein
  IC50: < 1.5 µM
[1]
  MIC: > 128 µg/mL

## CC[C@H]1OC(=O)[C@H](C)[C@@H](O[C@H]2C[C@@](C)(OC)[C@@H](O)[C@H](C)O2)[C@H](C)[C@@H](O[C@@H]2O[C@H](C)C[C@@H](NC)[C@@H]2N(C)C)[C@@](C)(OC)C[C@@H](C)C(=O)[C@H](C)[C@@H](O)[C@]1(C)O [Example 175, 3′-N-demethyl-2′-deoxy-2′-dimethylamino-6-O-methylerythromycin A]
Pro MMP-9 protein
  IC50: 1.65 µM
[1]
  MIC: 128 µg/mL (≈ 168 µM)

## CC[C@H]1OC(=O)[C@H](C)[C@@H](O[C@H]2C[C@@](C)(OC)[C@@H](O)[C@H](C)O2)[C@H](C)[C@@H](O[C@@H]2O[C@H](C)C[C@@H](N3CCOCC3)[C@@H]2N(C)C)[C@@](C)(OC)C[C@@H](C)C(=O)[C@H](C)[C@@H](O)[C@]1(C)O [Example 178, 3′-dedimethylamino-2′-deoxy-2′-dimethylamino-3′-(4-morpholino)-6-O-methylerythromycin A]
Pro MMP-9 protein
  IC50: 3.1 µM
[1]
  MIC: > 128 µg/mL

## CC[C@H]1OC(=O)[C@H](C)[C@@H](O[C@H]2C[C@@](C)(OC)[C@@H](OC(C)=O)[C@H](C)O2)[C@H](C)[C@@H](O[C@@H]2O[C@H](C)C[C@@H](N(C)CCCO)[C@@H]2N(C)C)[C@@](C)(OC)C[C@@H](C)C(=O)[C@H](C)[C@@H](O)[C@]1(C)O [Example 198, 4″-O-acetyl-3′-N-demethyl-2′-deoxy-2′-dimethylamino-3′-N-(3-hydroxypropyl)-6-O-methylerythromycin A]
Pro MMP-9 protein
  IC50: 2.88 µM
[1]
  MIC: > 128 µg/mL

## CC[C@H]1OC(=O)[C@H](C)[C@@H](O[C@H]2C[C@@](C)(OC)[C@@H](O)[C@H](C)O2)[C@H](C)[C@@H](O[C@@H]2O[C@H](C)C[C@@H](N(C)S(C)(=O)=O)[C@@H]2N(C)C)[C@@](C)(OC)C[C@@H](C)C(=O)[C@H](C)[C@@H](O)[C@]1(C)O [Example 186, 3′-N-demethyl-2′-deoxy-2′-dimethylamino-3′-N-methanesulfonyl-6-O-methylerythromycin A]
Pro MMP-9 protein
  IC50: 4.01 µM
[1]
  MIC: > 128 µg/mL

## CC[C@H]1OC(=O)[C@H](C)[C@@H](O[C@H]2C[C@@](C)(OC)[C@@H](O)[C@H](C)O2)[C@H](C)[C@@H](O[C@@H]2O[C@H](C)C[C@@H](N(C)CCO)[C@@H]2N(C)C)[C@@](C)(OC)C[C@@H](C)C(=O)[C@H](C)[C@@H](O)[C@]1(C)O [Example 173, 3′-N-demethyl-2′-deoxy-2′-dimethylamino-3′-N-(2-hydroxyethyl)-6-O-methylerythromycin A]
Pro MMP-9 protein
  IC50: 4.95 µM
[1]
  MIC: > 128 µg/mL

## CC[C@H]1OC(=O)[C@H](C)[C@@H](O[C@H]2C[C@@](C)(OC)[C@@H](OC(C)=O)[C@H](C)O2)[C@H](C)[C@@H](O[C@@H]2O[C@H](C)C[C@@H](N3CCOCC3)[C@@H]2N(C)C)[C@@](C)(OC(C)=O)C[C@@H](C)CN(C)[C@H](C)[C@@H](OC(C)=O)[C@]1(C)O [Example 212, 6,11,4″-O-triacetyl-3′-dedimethylamino-2′-deoxy-2′-dimethylamino-3′-(4-morpholino)-9-deoxo-9a-aza-9a-methyl-9a-homoerythromycin A]
Pro MMP-9 protein
  IC50: 1.78 µM
[1]
  MIC: > 128 µg/mL
